Test results taken from patent publication US6436963B1 (priority 1998, dated 2002).

Tests used:
Assay type in all cases: in vivo
Erysiphe graminis = assay: Powdery Mildew of Wheat (ERYSGT), protectant spray test on wheat seedlings; settings: wheat (cultivar Monon), sprayed to run off at 100 ppm, inoculated after 24 hours
Phytophthora infestans = settings: tomatoes (cultivar Rutgers), sprayed to run off at 100 ppm, inoculated after 24 hours
Puccinia recondita = assay: Brown Rust (PUCCRT), protectant spray test on wheat seedlings; settings: wheat (cultivar Monon), sprayed to run off at 100 ppm, inoculated after 24 hours
Leptosphaeria nodorum = assay: Glume Blotch of Wheat (LEPTNO), protectant spray test on wheat seedlings; settings: wheat (cultivar Monon), sprayed to run off at 100 ppm, inoculated after 24 hours

| SMILES | ERYSGT control of plant disease (Erysiphe graminis) | PHYTIN control of plant disease (Phytophthora infestans) | PUCCRT control of plant disease (Puccinia recondita) | LEPTNO control of plant disease (Leptosphaeria nodorum) |
| --- | --- | --- | --- | --- |
| CNC(=O)C(=NOC)c1ccccc1COc1ncc(C(C)OCc2ccc(C)cc2)cc1Cl (racemic) [Example 44] | ++ (++ = 75-100% control of plant disease) | ++ (++ = 75-100% control of plant disease) | ++ (++ = 75-100% control of plant disease) | ++ (++ = 75-100% control of plant disease) |
| CNC(=O)C(=NOC)c1ccccc1COc1ncc(C(OC(=O)N(C)C)c2ccccc2)cc1Cl (racemic) [Example 45] | ++ (++ = 75-100% control of plant disease) | ++ (++ = 75-100% control of plant disease) | ++ (++ = 75-100% control of plant disease) | ++ (++ = 75-100% control of plant disease) |
| CNC(=O)C(=NOC)c1ccccc1COc1ncc(C(OC(C)=O)c2ccc(F)cc2)cc1Cl (racemic) [Example 46] | ++ (++ = 75-100% control of plant disease) | − (− = 0-24% control of plant disease) | − (− = 0-24% control of plant disease) | ++ (++ = 75-100% control of plant disease) |
| CCCC(=O)OC(c1ccccc1)c1cnc(OCc2ccccc2C(=NOC)C(=O)NC)c(Cl)c1 (racemic) [Example 47] | ++ (++ = 75-100% control of plant disease) | ++ (++ = 75-100% control of plant disease) | ++ (++ = 75-100% control of plant disease) | ++ (++ = 75-100% control of plant disease) |
| CCC(=O)OC(c1ccc(F)cc1)c1cnc(OCc2ccccc2C(=NOC)C(=O)NC)c(Cl)c1 (racemic) [Example 48] | ++ (++ = 75-100% control of plant disease) | ++ (++ = 75-100% control of plant disease) | ++ (++ = 75-100% control of plant disease) | ++ (++ = 75-100% control of plant disease) |
| CNC(=O)C(=NOC)c1ccccc1COc1ncc(C(O)c2ccc3ccccc3c2)cc1Cl (racemic) [Example 49] | ++ (++ = 75-100% control of plant disease) | ++ (++ = 75-100% control of plant disease) | ++ (++ = 75-100% control of plant disease) | ++ (++ = 75-100% control of plant disease) |
| CCCC(=O)OC(c1ccc(F)cc1)c1cnc(OCc2ccccc2C(=NOC)C(=O)NC)c(Cl)c1 (racemic) [Example 50] | ++ (++ = 75-100% control of plant disease) | ++ (++ = 75-100% control of plant disease) | ++ (++ = 75-100% control of plant disease) | ++ (++ = 75-100% control of plant disease) |
| CNC(=O)C(=NOC)c1ccccc1COc1ncc(C(O)c2cccs2)cc1Cl (racemic) [Example 51] | ++ (++ = 75-100% control of plant disease) | ++ (++ = 75-100% control of plant disease) | ++ (++ = 75-100% control of plant disease) | ++ (++ = 75-100% control of plant disease) |
| CNC(=O)C(=NOC)c1ccccc1COc1ncc(C(C)OCc2ccccc2)cc1Cl (racemic) [Example 52] | ++ (++ = 75-100% control of plant disease) | − (− = 0-24% control of plant disease) | ++ (++ = 75-100% control of plant disease) | ++ (++ = 75-100% control of plant disease) |
| CNC(=O)C(=NOC)c1ccccc1COc1ncc(C(C)(OC(C)=O)c2ccccc2)cc1Cl (racemic) [Example 53] | ++ (++ = 75-100% control of plant disease) | ++ (++ = 75-100% control of plant disease) | ++ (++ = 75-100% control of plant disease) | ++ (++ = 75-100% control of plant disease) |
| CNC(=O)C(=NOC)c1ccccc1COc1ncc(C(OC=O)c2ccccc2)cc1Cl (racemic) [Example 54] | ++ (++ = 75-100% control of plant disease) | ++ (++ = 75-100% control of plant disease) | ++ (++ = 75-100% control of plant disease) | ++ (++ = 75-100% control of plant disease) |
| CNC(=O)C(=NOC)c1ccccc1COc1ncc(C(OC(=O)OC(C)C)c2ccccc2)cc1Cl (racemic) [Example 56] | ++ (++ = 75-100% control of plant disease) | ++ (++ = 75-100% control of plant disease) | ++ (++ = 75-100% control of plant disease) | ++ (++ = 75-100% control of plant disease) |
| CNC(=O)C(=NOC)c1ccccc1COc1ncc(C(O)c2ccc3c(c2)OCO3)cc1Cl (racemic) [Example 58] | ++ (++ = 75-100% control of plant disease) | ++ (++ = 75-100% control of plant disease) | ++ (++ = 75-100% control of plant disease) | ++ (++ = 75-100% control of plant disease) |
| CNC(=O)C(=NOC)c1ccccc1COc1ncc(C(O)c2ccccc2C)cc1Cl (racemic) [Example 59] | ++ (++ = 75-100% control of plant disease) | ++ (++ = 75-100% control of plant disease) | ++ (++ = 75-100% control of plant disease) | ++ (++ = 75-100% control of plant disease) |
| CNC(=O)C(=NOC)c1ccccc1COc1ncc(C(OC(C)=O)c2ccc3c(c2)OCO3)cc1Cl (racemic) [Example 60] | ++ (++ = 75-100% control of plant disease) | ++ (++ = 75-100% control of plant disease) | ++ (++ = 75-100% control of plant disease) | ++ (++ = 75-100% control of plant disease) |
| CNC(=O)C(=NOC)c1ccccc1COc1ncc(C(OC(C)=O)c2ccccc2C)cc1Cl (racemic) [Example 61] | ++ (++ = 75-100% control of plant disease) | ++ (++ = 75-100% control of plant disease) | ++ (++ = 75-100% control of plant disease) | ++ (++ = 75-100% control of plant disease) |
| CNC(=O)C(=NOC)c1ccccc1COc1ncc(C(C)OCc2cccc(OC)c2)cc1Cl (racemic) [Example 62] | ++ (++ = 75-100% control of plant disease) | − (− = 0-24% control of plant disease) | ++ (++ = 75-100% control of plant disease) | ++ (++ = 75-100% control of plant disease) |
| CCOCC(=O)OC(c1ccccc1)c1cnc(OCc2ccccc2C(=NOC)C(=O)NC)c(Cl)c1 (racemic) [Example 63] | ++ (++ = 75-100% control of plant disease) | ++ (++ = 75-100% control of plant disease) | ++ (++ = 75-100% control of plant disease) | ++ (++ = 75-100% control of plant disease) |
